According to publication PMC10817943 (Nature Communications, 2024):
Read-outs that look alike come from different tables or passages of the source.

Key:
[1] = test system: M. smegmatis mc^2155 reporter strain harboring PrecA-LUX; conditions: RecA reporter, ciprofloxacin 0.06 µg/mL, MPA 0.125 µg/mL
[2] = test system: M. smegmatis mc^2155 reporter strain harboring PradA-LUX; conditions: RadA reporter, ciprofloxacin 0.06 µg/mL, MPA 0.125 µg/mL

In the case of O=C(O)c1cn(C2CC2)c2cc(N3CCNCC3)c(F)cc2c1=O [ciprofloxacin, Ciprofloxacin, reference compound], the luminescence induction ([1]; elapsed time 0:00:00) is reported as 1225 RLU, the luminescence induction ([1]; elapsed time 3:00:00) is reported as 9623 RLU and the luminescence induction ([1]; elapsed time 6:00:00) is reported as 25614 RLU. It also gave a luminescence induction ([1]; elapsed time 9:00:00) of 37445 RLU, a luminescence induction ([1]; elapsed time 12:00:00) of 44651 RLU and a luminescence induction ([1]; elapsed time 15:00:00) of 48781 RLU. For the same compound, the luminescence induction ([1]; elapsed time 18:00:00) was 52120 RLU, the luminescence induction ([1]; elapsed time 21:00:00) was 57807 RLU and the luminescence induction ([1]; elapsed time 24:00:00) was 68911 RLU. For the same compound, the luminescence induction ([1]; elapsed time 27:00:00) was 89348 RLU, the luminescence induction ([1]; elapsed time 30:00:00) was 122834 RLU and the luminescence induction ([1]; elapsed time 33:00:00) was 178492 RLU. For the same compound, the luminescence induction ([1]; elapsed time 36:00:00) was 273065 RLU, the luminescence induction ([1]; elapsed time 39:00:00) was 424870 RLU and the luminescence induction ([1]; elapsed time 42:00:00) was 486228 RLU. For the same compound, the luminescence induction ([1]; elapsed time 45:00:00) was 462582 RLU, the luminescence induction ([1]; elapsed time 48:00:00) was 485841 RLU and the luminescence induction ([1]; elapsed time 51:00:00) was 408474 RLU. The luminescence induction ([1]; elapsed time 54:00:00) was 246511 RLU, the luminescence induction ([1]; elapsed time 57:00:00) was 125742 RLU and the luminescence induction ([1]; elapsed time 60:00:00) was 64490 RLU. For the same compound, the luminescence induction ([1]; elapsed time 63:00:00) was 37695 RLU, the luminescence induction ([1]; elapsed time 66:00:00) was 23762 RLU and the luminescence induction ([1]; elapsed time 69:00:00) was 17429 RLU. It also gave a luminescence induction ([1]; elapsed time 72:00:00) of 13645 RLU, a luminescence induction ([1]; elapsed time 75:00:00) of 10589 RLU and a luminescence induction ([1]; elapsed time 78:00:00) of 8697 RLU. It also gave a luminescence induction ([1]; elapsed time 81:00:00) of 7129 RLU, a luminescence induction ([1]; elapsed time 84:00:00) of 6189 RLU and a luminescence induction ([1]; elapsed time 87:00:00) of 5163 RLU. The luminescence induction ([2]; elapsed time 0:00:00) was 123 RLU, the luminescence induction ([2]; elapsed time 3:00:00) was 1612 RLU and the luminescence induction ([2]; elapsed time 6:00:00) was 2073 RLU. For the same compound, the luminescence induction ([2]; elapsed time 9:00:00) was 2126 RLU, the luminescence induction ([2]; elapsed time 12:00:00) was 1993 RLU and the luminescence induction ([2]; elapsed time 15:00:00) was 2134 RLU. It also gave a luminescence induction ([2]; elapsed time 18:00:00) of 2689 RLU, a luminescence induction ([2]; elapsed time 21:00:00) of 4077 RLU and a luminescence induction ([2]; elapsed time 24:00:00) of 6491 RLU. The luminescence induction ([2]; elapsed time 27:00:00) was 10903 RLU, the luminescence induction ([2]; elapsed time 30:00:00) was 19150 RLU and the luminescence induction ([2]; elapsed time 33:00:00) was 33571 RLU. It also gave a luminescence induction ([2]; elapsed time 36:00:00) of 56395 RLU, a luminescence induction ([2]; elapsed time 39:00:00) of 67383 RLU and a luminescence induction ([2]; elapsed time 42:00:00) of 103238 RLU. It also gave a luminescence induction ([2]; elapsed time 45:00:00) of 85422 RLU, a luminescence induction ([2]; elapsed time 48:00:00) of 47660 RLU and a luminescence induction ([2]; elapsed time 51:00:00) of 21645 RLU. It also gave a luminescence induction ([2]; elapsed time 54:00:00) of 9619 RLU, a luminescence induction ([2]; elapsed time 57:00:00) of 4843 RLU and a luminescence induction ([2]; elapsed time 60:00:00) of 2928 RLU. The luminescence induction ([2]; elapsed time 63:00:00) was 1993 RLU, the luminescence induction ([2]; elapsed time 66:00:00) was 1543 RLU and the luminescence induction ([2]; elapsed time 69:00:00) was 1199 RLU. It also gave a luminescence induction ([2]; elapsed time 72:00:00) of 998 RLU, a luminescence induction ([2]; elapsed time 75:00:00) of 761 RLU and a luminescence induction ([2]; elapsed time 78:00:00) of 636 RLU. It also gave a luminescence induction ([2]; elapsed time 81:00:00) of 547 RLU, a luminescence induction ([2]; elapsed time 84:00:00) of 460 RLU and a luminescence induction ([2]; elapsed time 87:00:00) of 387 RLU.
